Key:
Assay in all cases: SelectScreen ZLYTE
Format in all cases: biochemical
[1] = target: T1, BTK (Homo sapiens, UniProt Q06187); details: ATP Km, read-out: Percentage of inhibition
T1 construct: purchased Life Technologies (SelectScreen service)
In short: (§1)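 Percent inhibition values come from a one-concentration (1 μM) profiling run covering a wide set of kinases.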

[2] = target: T2, EGFR (ErbB1) C797S (Homo sapiens, UniProt P00533, C797S); details: ATP Km, read-out: Percentage of inhibition
T2 construct: purchased Life Technologies
T2 sequence (P00533 25-1210 C797S): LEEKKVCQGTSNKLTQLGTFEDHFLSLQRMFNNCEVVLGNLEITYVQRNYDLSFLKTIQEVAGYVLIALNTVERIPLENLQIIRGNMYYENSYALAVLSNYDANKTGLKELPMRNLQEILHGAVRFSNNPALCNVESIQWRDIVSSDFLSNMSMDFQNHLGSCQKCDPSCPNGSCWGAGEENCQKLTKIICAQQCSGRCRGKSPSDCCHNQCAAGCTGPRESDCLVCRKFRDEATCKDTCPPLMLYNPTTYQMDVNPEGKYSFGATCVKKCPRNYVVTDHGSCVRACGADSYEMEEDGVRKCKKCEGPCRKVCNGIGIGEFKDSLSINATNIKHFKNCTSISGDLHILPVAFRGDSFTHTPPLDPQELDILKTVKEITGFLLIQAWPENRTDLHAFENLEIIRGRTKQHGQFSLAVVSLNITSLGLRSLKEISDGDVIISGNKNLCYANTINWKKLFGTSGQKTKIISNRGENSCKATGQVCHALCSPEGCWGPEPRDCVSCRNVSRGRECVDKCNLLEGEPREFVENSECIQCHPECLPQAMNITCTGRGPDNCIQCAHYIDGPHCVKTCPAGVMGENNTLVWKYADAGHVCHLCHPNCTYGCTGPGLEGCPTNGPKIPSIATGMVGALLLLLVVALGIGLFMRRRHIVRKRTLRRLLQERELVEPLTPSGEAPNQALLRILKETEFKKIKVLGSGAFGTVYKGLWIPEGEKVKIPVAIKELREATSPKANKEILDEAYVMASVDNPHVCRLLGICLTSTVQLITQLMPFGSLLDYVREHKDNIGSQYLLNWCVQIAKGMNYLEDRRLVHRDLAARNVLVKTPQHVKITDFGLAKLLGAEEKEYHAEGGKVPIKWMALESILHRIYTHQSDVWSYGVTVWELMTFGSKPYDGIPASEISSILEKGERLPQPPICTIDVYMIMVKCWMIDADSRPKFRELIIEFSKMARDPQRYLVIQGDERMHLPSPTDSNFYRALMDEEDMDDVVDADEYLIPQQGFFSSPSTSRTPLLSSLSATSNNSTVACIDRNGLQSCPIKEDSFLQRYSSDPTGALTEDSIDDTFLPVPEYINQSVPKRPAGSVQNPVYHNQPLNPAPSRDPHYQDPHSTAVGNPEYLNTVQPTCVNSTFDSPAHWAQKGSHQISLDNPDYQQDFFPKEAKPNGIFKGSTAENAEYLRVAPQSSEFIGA
In short: as §1

[3] = target: T3, HIPK2 (Homo sapiens, UniProt Q9H2X6); details: ATP Km, read-out: Percentage of inhibition
T3 construct: purchased Life Technologies (SelectScreen service)
In short: as §1

[4] = target: PAK4 (Homo sapiens, UniProt O96013); details: ATP Km, read-out: Percentage of inhibition
In short: as §1

[5] = target: PDGFRA T674I (Homo sapiens, UniProt P16234, T674I); details: ATP Km, read-out: Percentage of inhibition
In short: as §1

[6] = target: T4, RPS6KA3 (RSK2) (Homo sapiens, UniProt P51812); details: ATP Km, read-out: Percentage of inhibition
T4 construct: purchased Life Technologies (SelectScreen service)
In short: as §1

[7] = target: T5, AXL (Homo sapiens, UniProt P30530); details: ATP Km, read-out: Percentage of inhibition
T5 construct: purchased Life Technologies
In short: as §1

[8] = target: T6, MATK (HYL) (Homo sapiens, UniProt P42679); details: ATP Km, read-out: Percentage of inhibition
T6 construct: purchased Life Technologies (SelectScreen Whole Panel service)
In short: as §1

[9] = target: T7, CSNK2A2 (CK2 alpha 2) (Homo sapiens, UniProt P19784); details: ATP Km, read-out: Percentage of inhibition
T7 construct: purchased Life Technologies (SelectScreen Whole Panel service)
In short: as §1

[10] = target: T8, DYRK1B (Homo sapiens, UniProt Q9Y463); details: ATP Km, read-out: Percentage of inhibition
T8 construct: purchased Life Technologies
T8 sequence (Q9Y463 whole entry): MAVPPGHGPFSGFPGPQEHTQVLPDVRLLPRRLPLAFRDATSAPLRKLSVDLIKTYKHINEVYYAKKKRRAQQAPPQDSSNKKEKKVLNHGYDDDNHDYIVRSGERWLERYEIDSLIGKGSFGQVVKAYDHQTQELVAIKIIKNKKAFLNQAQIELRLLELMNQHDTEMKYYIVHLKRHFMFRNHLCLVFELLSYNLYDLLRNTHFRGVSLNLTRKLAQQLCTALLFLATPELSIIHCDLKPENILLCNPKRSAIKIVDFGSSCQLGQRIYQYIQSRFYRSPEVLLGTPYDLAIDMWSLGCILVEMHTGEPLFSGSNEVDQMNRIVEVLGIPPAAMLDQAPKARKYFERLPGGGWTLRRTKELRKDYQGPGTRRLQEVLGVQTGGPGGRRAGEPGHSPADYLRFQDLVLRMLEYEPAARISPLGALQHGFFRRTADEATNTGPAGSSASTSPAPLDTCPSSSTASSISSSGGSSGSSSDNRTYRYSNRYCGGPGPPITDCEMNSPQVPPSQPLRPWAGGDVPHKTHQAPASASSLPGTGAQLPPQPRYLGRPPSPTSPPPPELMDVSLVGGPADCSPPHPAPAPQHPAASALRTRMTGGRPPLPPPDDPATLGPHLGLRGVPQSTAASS
In short: as §1

[11] = target: ABL1 F317I (Homo sapiens, UniProt P00519, F317I); details: ATP Km, read-out: Percentage of inhibition
In short: as §1

[12] = target: T9, MAP2K2 (MEK2) (Homo sapiens, UniProt P36507); details: ATP 100 µM, read-out: Percentage of inhibition
T9 construct: purchased Life Technologies
In short: as §1

[13] = target: T10, HIPK3 (YAK1) (Homo sapiens, UniProt Q9H422); details: ATP Km, read-out: Percentage of inhibition
T10 construct: purchased Life Technologies
In short: as §1

[14] = target: MAPK13 (p38 delta) (Homo sapiens, UniProt O15264); details: ATP Km, read-out: Percentage of inhibition
MAPK13 (p38 delta), sequence (O15264 whole entry): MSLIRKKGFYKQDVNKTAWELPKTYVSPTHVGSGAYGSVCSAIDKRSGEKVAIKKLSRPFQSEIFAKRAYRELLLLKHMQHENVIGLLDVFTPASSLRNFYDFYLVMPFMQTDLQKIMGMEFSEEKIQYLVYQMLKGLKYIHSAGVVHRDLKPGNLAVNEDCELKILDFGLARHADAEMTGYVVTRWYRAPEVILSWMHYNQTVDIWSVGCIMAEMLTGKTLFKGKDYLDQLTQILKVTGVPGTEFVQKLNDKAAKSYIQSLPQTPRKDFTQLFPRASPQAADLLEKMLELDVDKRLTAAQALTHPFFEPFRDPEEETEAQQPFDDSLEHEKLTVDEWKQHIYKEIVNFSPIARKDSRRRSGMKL
In short: as §1

[15] = target: T11, ADRBK1 (GRK2) (Homo sapiens, UniProt P25098); details: ATP Km, read-out: Percentage of inhibition
T11 construct: purchased Life Technologies (SelectScreen Whole Panel)
In short: as §1

[16] = target: FER (Homo sapiens, UniProt P16591); details: ATP Km, read-out: Percentage of inhibition
In short: as §1

[17] = target: AMPK A2/B1/G1 (Homo sapiens, UniProt P54646); details: ATP Km, read-out: Percentage of inhibition
In short: as §1

[18] = target: T12, MAPK3 (ERK1) (Homo sapiens, UniProt P27361); details: ATP Km, read-out: Percentage of inhibition
T12 construct: purchased Life Technologies
In short: as §1

[19] = target: T13, CDK5/p35 (Homo sapiens, UniProt Q00535); details: ATP Km, read-out: Percentage of inhibition
T13 construct: purchased Life Technologies
In short: as §1

[20] = target: T14, AMPK (A2/B1/G3) (Homo sapiens, UniProt P54646); details: ATP Km, read-out: Percentage of inhibition
T14 construct: purchased Life Technologies (SelectScreen Whole Panel service)
In short: as §1

[21] = target: T15, BRAF V599E (Homo sapiens, UniProt P15056, V600E); details: ATP 100 µM, read-out: Percentage of inhibition
T15 construct: purchased Life Technologies
T15 sequence (P15056 416-766 V600E limits assumed): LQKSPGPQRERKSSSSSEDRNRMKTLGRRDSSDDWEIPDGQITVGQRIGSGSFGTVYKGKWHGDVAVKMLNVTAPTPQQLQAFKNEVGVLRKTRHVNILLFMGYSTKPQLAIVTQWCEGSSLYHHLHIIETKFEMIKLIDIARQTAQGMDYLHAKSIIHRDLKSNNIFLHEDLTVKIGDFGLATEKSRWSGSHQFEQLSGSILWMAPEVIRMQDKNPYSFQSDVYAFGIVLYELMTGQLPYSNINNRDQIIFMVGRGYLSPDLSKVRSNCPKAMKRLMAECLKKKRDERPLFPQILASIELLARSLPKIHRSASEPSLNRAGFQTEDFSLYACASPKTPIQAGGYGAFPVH
In short: as §1

[22] = target: MST1R (RON) (Homo sapiens, UniProt Q04912); details: ATP Km, read-out: Percentage of inhibition
MST1R (RON), sequence (Q04912 25-1400): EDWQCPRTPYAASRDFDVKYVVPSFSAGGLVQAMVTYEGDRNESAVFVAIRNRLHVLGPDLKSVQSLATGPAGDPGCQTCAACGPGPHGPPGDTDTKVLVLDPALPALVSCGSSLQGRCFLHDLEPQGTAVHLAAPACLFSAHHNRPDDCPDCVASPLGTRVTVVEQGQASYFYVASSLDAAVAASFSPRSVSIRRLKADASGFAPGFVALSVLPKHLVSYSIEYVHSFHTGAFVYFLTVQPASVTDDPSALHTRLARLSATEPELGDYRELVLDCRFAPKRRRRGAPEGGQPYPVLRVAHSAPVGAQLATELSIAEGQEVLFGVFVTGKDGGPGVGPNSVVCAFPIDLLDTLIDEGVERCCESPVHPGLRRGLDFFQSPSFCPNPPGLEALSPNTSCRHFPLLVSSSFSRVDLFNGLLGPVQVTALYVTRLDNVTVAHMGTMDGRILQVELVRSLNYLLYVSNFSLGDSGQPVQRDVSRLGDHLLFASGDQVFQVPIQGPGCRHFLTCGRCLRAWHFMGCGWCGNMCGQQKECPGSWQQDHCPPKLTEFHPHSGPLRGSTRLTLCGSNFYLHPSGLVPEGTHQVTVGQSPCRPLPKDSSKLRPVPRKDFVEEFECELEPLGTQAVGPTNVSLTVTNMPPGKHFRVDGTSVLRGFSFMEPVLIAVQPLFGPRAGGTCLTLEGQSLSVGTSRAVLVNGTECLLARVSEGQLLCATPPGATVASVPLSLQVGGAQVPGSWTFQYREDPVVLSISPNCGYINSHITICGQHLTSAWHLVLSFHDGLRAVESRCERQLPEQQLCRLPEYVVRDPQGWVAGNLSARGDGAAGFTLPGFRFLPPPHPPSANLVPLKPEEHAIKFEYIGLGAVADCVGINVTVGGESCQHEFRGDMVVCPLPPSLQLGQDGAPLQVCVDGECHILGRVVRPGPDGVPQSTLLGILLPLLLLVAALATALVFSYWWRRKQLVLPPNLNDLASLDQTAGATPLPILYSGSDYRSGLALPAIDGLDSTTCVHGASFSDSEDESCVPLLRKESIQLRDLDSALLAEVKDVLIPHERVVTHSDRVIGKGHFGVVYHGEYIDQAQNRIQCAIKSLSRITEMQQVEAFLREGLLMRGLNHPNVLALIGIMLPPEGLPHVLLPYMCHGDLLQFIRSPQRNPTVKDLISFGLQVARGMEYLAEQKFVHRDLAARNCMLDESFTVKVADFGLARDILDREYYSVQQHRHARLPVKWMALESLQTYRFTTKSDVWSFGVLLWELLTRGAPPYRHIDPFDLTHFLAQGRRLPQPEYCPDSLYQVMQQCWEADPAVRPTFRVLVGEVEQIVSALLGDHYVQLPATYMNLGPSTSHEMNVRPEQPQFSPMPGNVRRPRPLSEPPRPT
In short: as §1

[23] = target: T16, RPS6KA6 (RSK4) (Homo sapiens, UniProt Q9UK32); details: ATP Km, read-out: Percentage of inhibition
T16 construct: purchased Life Technologies
In short: as §1

[24] = target: T17, DYRK3 (Homo sapiens, UniProt O43781); details: ATP Km, read-out: Percentage of inhibition
T17 construct: purchased Life Technologies (SelectScreen service)
In short: as §1

[25] = target: T18, CDK5/p25 (Homo sapiens, UniProt Q00535); details: ATP Km, read-out: Percentage of inhibition
T18 construct: purchased Life Technologies
In short: as §1

[26] = target: T19, KIT T670I (Homo sapiens, UniProt P10721, T670I); details: ATP Km, read-out: Percentage of inhibition
T19 construct: purchased Life Technologies
In short: as §1

[27] = target: T20, MAPK11 (p38 beta) (Homo sapiens, UniProt Q15759); details: ATP Km, read-out: Percentage of inhibition
T20 construct: purchased Life Technologies (SelectScreen)
T20 sequence (Q15759 whole entry): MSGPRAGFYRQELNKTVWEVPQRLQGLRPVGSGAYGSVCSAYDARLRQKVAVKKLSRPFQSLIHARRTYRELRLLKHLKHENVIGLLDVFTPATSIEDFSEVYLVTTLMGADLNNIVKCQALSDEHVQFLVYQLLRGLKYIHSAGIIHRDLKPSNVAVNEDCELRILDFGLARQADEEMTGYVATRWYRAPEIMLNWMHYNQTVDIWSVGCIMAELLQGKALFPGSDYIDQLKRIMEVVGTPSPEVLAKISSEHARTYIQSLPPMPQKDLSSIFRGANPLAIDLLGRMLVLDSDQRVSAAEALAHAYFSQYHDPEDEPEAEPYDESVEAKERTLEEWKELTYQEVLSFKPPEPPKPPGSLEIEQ
In short: as §1

[28] = target: T21, CAMK4 (CaMKIV) (Homo sapiens, UniProt Q16566); details: ATP Km, read-out: Percentage of inhibition
T21 construct: purchased Life Technologies
In short: as §1

[29] = target: T22, DAPK3 (ZIPK) (Homo sapiens, UniProt O43293); details: ATP Km, read-out: Percentage of inhibition
T22 construct: purchased Life Technologies (SelectScreen Whole Panel service)
In short: as §1

[30] = target: AMPK (A1/B2/G3) (Homo sapiens, UniProt Q13131); details: ATP Km, read-out: Percentage of inhibition
In short: as §1

[31] = target: T23, BRAF (Homo sapiens, UniProt P15056); details: ATP 100 µM, read-out: Percentage of inhibition
T23 construct: purchased Life Technologies (SelectScreen Whole Panel)
In short: as §1

[32] = target: T24, ABL1 F317L (Homo sapiens, UniProt P00519, F317L); details: ATP Km, read-out: Percentage of inhibition
T24 construct: purchased Life Technologies (SelectScreen)
In short: as §1

[33] = target: T25, PRKG2 (PKG2) (Homo sapiens, UniProt Q13237); details: ATP Km, read-out: Percentage of inhibition
T25 construct: purchased Life Technologies
In short: as §1

[34] = target: SRC N1 (Homo sapiens, UniProt P12931); details: ATP Km, read-out: Percentage of inhibition
SRC N1, sequence (P12931 1-542 isoform P12931-2): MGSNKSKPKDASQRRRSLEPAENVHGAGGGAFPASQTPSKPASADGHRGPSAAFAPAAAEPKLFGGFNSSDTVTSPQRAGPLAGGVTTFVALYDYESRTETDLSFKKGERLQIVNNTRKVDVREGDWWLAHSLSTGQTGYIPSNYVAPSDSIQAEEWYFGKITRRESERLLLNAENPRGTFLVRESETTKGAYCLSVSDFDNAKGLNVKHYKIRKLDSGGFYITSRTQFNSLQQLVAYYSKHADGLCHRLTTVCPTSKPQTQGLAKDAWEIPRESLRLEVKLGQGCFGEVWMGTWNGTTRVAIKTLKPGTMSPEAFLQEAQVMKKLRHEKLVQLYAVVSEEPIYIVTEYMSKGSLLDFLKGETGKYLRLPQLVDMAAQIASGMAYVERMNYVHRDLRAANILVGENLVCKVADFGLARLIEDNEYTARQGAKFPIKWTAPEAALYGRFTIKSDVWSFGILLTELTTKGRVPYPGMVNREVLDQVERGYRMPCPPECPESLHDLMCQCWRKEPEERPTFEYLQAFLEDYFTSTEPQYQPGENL
In short: as §1

[35] = target: HIPK1 (Myak) (Homo sapiens, UniProt Q86Z02); details: ATP Km, read-out: Percentage of inhibition
In short: as §1

[36] = target: MAPK14 (p38 alpha) Direct (Homo sapiens, UniProt Q16539); details: ATP Km, read-out: Percentage of inhibition
In short: as §1

[37] = target: MAP3K9 (MLK1) (Homo sapiens, UniProt P80192); details: ATP Km, read-out: Percentage of inhibition
In short: as §1

[38] = target: T26, PHKG1 (Homo sapiens, UniProt Q16816); details: ATP Km, read-out: Percentage of inhibition
T26 construct: purchased Life Technologies
In short: as §1

Compound: COc1ccc2[nH]c3c(=O)[nH]c4ccc(O)cc4c3c2c1 [Compound 55, 2-Hydroxy-10-methoxy-5,7-dihydro-6H-indolo[2,3-c]quinolin-6-one]
- inhibition at 1 µM [1]: 24%
- inhibition at 1 µM [2]: 4%
- inhibition at 1 µM [3]: 74%
- inhibition at 1 µM [4]: 15%
- inhibition at 1 µM [5]: 6%
- inhibition at 1 µM [6]: 83%
- inhibition at 1 µM [7]: 37%
- inhibition at 1 µM [8]: 11%
- inhibition at 1 µM [9]: 17%
- inhibition at 1 µM [10]: 96%
- inhibition at 1 µM [11]: 14%
- inhibition at 1 µM [12]: 87%
- inhibition at 1 µM [13]: 35%
- inhibition at 1 µM [14]: 20%
- inhibition at 1 µM [15]: -3%
- inhibition at 1 µM [16]: 56%
- inhibition at 1 µM [17]: 58%
- inhibition at 1 µM [18]: 27%
- inhibition at 1 µM [19]: 32%
- inhibition at 1 µM [20]: 42%
- inhibition at 1 µM [21]: 96%
- inhibition at 1 µM [22]: 6%
- inhibition at 1 µM [23]: 93%
- inhibition at 1 µM [24]: 86%
- inhibition at 1 µM [25]: 33%
- inhibition at 1 µM [26]: 4%
- inhibition at 1 µM [27]: 8%
- inhibition at 1 µM [28]: 41%
- inhibition at 1 µM [29]: 44%
- inhibition at 1 µM [30]: 67%
- inhibition at 1 µM [31]: 100%
- inhibition at 1 µM [32]: 9%
- inhibition at 1 µM [33]: 37%
- inhibition at 1 µM [34]: 59%
- inhibition at 1 µM [35]: 58%
- inhibition at 1 µM [36]: 6%
- inhibition at 1 µM [37]: 63%
- inhibition at 1 µM [38]: 32%
